Entries after “also recorded” stand apart in the source; their conditions may differ. Where two headings read alike, the source gives them in different places.
Assays:
[1] = target: AgifCSP5 (Aphidius gifuensis, UniProt A0A3Q9ELG9); experiment: Fluorescence competitive binding assay with 1-NPN probe, wild-type AgifCSP5; conditions: for Binding affinity in words: wild-type AgifCSP5
From the text: (§1) The candidate VOCs were mainly derived from various organic volatiles in wheat field habitats, referring to the compounds related to wheat plants and wheat aphids previously reported in a published paper by Jiang et al. in 2022 and 2023 [11, 12], including four groups of ligands: (1) aphid alarm pheromone components; (2) aphid sex pheromone; (3) green leaf volatiles of wheat; and (4) aphid-induced plant volatiles. […] The classes, CAS numbers, and purities of the chemicals used in these assays are listed in Appendix B. A Lengguang 970CRT spectrofluorimeter (Shanghai Jingmi, Shanghai, China) equipped with a 1 cm light path fluorimeter quartz cuvette was used to record the fluorescence intensity at room temperature with the following parameters: the excitation wavelength was set at 337 nm, the emission light wavelength was recorded at 350–500 nm, the high-speed scan mode was used, and the slit width was 10 nm. To determine the binding affinity of 1-NPN for AgifCSP5 proteins, a 2 µM protein solution diluted with 50 mM Tris-HCl at pH 7.4 was titrated with aliquots of the 1 mM 1-NPN stock solution to final concentrations ranging from 2–40 μM. Ligands bound to AgifCSP5 have a protein:ligand ratio of 1:1. Three independent repeats were carried out for all measurements. The binding affinity of AgifCSP5 for all ligands was calculated by the formula Ki = [IC50]/(1 + [1 − NPN]/K1-NPN), where the IC50 is defined as the concentration of a competitor that caused a 50% reduction in fluorescence intensity, K1-NPN is the dissociation constant (Kd) of the AgifCSP5/1-NPN complex, and [1-NPN] is the free concentration of 1-NPN.

[2] = target: R24A mutant of AgifCSP5 (Aphidius gifuensis, UniProt A0A3Q9ELG9, R44A); experiment: Fluorescence competitive binding assay, R24A mutant
Chain of R24A mutant of AgifCSP5 (A0A3Q9ELG9 entry or part of it R44A): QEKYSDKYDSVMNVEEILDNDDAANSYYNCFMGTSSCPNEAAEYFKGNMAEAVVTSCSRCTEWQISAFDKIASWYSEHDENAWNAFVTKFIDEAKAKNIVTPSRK
From the text: as §1
(§2) The mutagenesis primers for the targeted key amino acid residues were designed online (https://crm.vazyme.com/cetool/singlepoint.html (accessed on 24 December 2023)) according to the protocols of the Mut Express II Fast Mutagenesis Kit V2 (Vazyme, China) (Appendix B). Mutations were obtained by using Phanta Max Superfidelity DNA Polymerase with recombinant Plasmid pET-30a/AgifCSP5 plasmid DNA as a template. The plasmids of the mutants were verified by DNA sequencing. The mutated proteins were then expressed and purified, as described above. After protein concentration determination, the binding affinities of the mutants with ligands that previously bound well to the AgifCSP5 protein were verified using fluorescence competitive binding assays.

[3] = target: Y75A mutant of AgifCSP5 (Aphidius gifuensis, UniProt A0A3Q9ELG9, Y95A); experiment: Fluorescence competitive binding assay, Y75A mutant
Chain of Y75A mutant of AgifCSP5 (A0A3Q9ELG9 entry or part of it Y95A): as the sequence (A0A3Q9ELG9 entry or part of it R44A) above, with A24R, Y75A counted along it
From the text: as §1, §2

[4] = tested on: A. gifuensis adults; experiment: Y-tube olfactometer assay; type: in vivo, Aphidius gifuensis
Description: The behavioral responses of A. gifuensis to volatiles were tested using a Y-tube olfactometer (3.5 cm in diameter, arms 20 cm in length, and a stem 20 cm in length). The assay method was described by Guo et al., and minor improvements were made. The incoming air at a constant flow (300 mL/min) was first filtered using allochroic silica gel and activated carbon and then humidified with ultrapure water. The test compounds were serially diluted with paraffin oil to concentrations of 0.01, 0.1, 1, 10, and 100mg/mL. A total of 10 μL of tested volatile oil preloaded onto 1 cm diameter filter paper was placed in the chamber of the chosen treatment arm of the Y-tube olfactometer, and the same filter paper in another chamber of the chosen control arm was loaded with 10 μL of liquid paraffin. The choice of each adult introduced into the Y-tube stem within 5 min was recorded. The experiments were performed in a dark room at room temperature (25 ± 1 °C), and a light-emitting diode installed at 30 cm was used as the light source. In total, no fewer than 60 adults (at least 30 from each sex) were used in each treatment. After 5 insects were tested, we switched the positions of the volatile arm and the control arm, and after a total of 10 insects were tested, the Y-tube olfactometer was washed with 75% ethanol and air-dried.

[5] = wild-type AgifCSP5, 1-NPN displacement, pH 7.4, read-out: IC50
[6] = wild-type AgifCSP5, 1-NPN displacement, pH 7.4, read-out: Ki

Chain of AgifCSP5 (A0A3Q9ELG9 entry or part of it): as the sequence (A0A3Q9ELG9 entry or part of it R44A) above, with A24R counted along it

C=C1CCC2(C(C)C)CC12 (stereo not shown) [Sabinene]
IC50 [1]: 16.4 ± 0.94 µM
Ki [1]: 12.1 ± 0.69 µM
IC50 [2]: 22.4 ± 14.6 µM
Ki [2]: 20.6 ± 13.4 µM
IC50 [3]: 26.2 ± 11.6 µM
Ki [3]: 18.6 ± 8.23 µM
Behavioral response in words ([4]; 10 mg/mL): significantly repelled only males
Behavioral response in words ([4]; 100 mg/mL): significantly repelled; also recorded: repellent effects
Behavioral response in words ([4]; low concentrations): did not show any repelling or attracting activity

COC(=O)c1ccccc1O [Methyl salicylate]
IC50 [1]: 20.6 ± 3.58 µM
Ki [1]: 15.3 ± 2.65 µM

O=Cc1ccccc1 [Benzaldehyde]
IC50 [1]: 18.2 ± 0.88 µM
Ki [1]: 13.5 ± 0.65 µM
IC50 [2]: 17.3 ± 3.62 µM
Ki [2]: 15.8 ± 3.33 µM
IC50 [3]: > 40 µM
Behavioral response in words ([4]; 100 mg/mL): significantly repelled; also recorded: repellent effects; also recorded: strongly repelled
Behavioral response in words ([4]; low concentrations): did not show any repelling or attracting activity

C=CC(=C)CCC=C(C)C [Myrcene]
IC50 [1]: 22.5 ± 2.51 µM
Ki [1]: 16.7 ± 1.86 µM

CC/C=C\CC=O [cis-3-Hexenal]
IC50 [1]: 29.8 ± 1.55 µM
Ki [1]: 22 ± 1.15 µM

CCC/C=C\CO [cis-2-Hexen-1-ol]
IC50 [1]: 34.5 ± 2.09 µM
Ki [1]: 25.6 ± 1.55 µM

C=CC(C)(O)CCC=C(C)C (stereo not shown) [Linalool]
IC50 [1]: 25.5 ± 3.46 µM
Ki [1]: 18.9 ± 2.56 µM

CCC/C=C/C=O [trans-2-Hexen-1-al]
IC50 [1]: 18.1 ± 1.18 µM
Ki [1]: 13.4 ± 0.87 µM
IC50 [2]: 15 ± 8.09 µM
Ki [2]: 13.8 ± 7.43 µM
IC50 [3]: 14.6 ± 5.42 µM
Ki [3]: 10.4 ± 3.85 µM
Behavioral response in words ([4]; 10 mg/mL): obviously repelled
Behavioral response in words ([4]; 100 mg/mL): significantly repelled; also recorded: repellent effects
Behavioral response in words ([4]; 100 mg/mL, listed as trans-2-hexenal): strongly repelled
Behavioral response in words ([4]; low concentrations): did not show any repelling or attracting activity

CCCCCCCCCCCCCCCCCO [1-Heptadecanol]
IC50 [1]: 21.4 ± 1.07 µM
Ki [1]: 15.8 ± 0.79 µM

OCc1ccccc1 [Benzyl alcohol]
IC50 [1]: 22.4 ± 4.58 µM
Ki [1]: 16.6 ± 3.39 µM

CCCCCCCCCCCCCC=O [Tetradecanal]
IC50 [1]: 20.6 ± 2.11 µM
Ki [1]: 15.3 ± 1.57 µM
Binding affinity of R24A compared with wild type, in words ([2]; R24A mutant): increased the binding affinity

c1ccc(Nc2cccc3ccccc23)cc1 [1-NPN, N-phenyl-1-naphthylamine, reference compound]
Kd [1]: 3.64 µM
Kd [2]: 14.4 µM
Kd [3]: 3.13 µM

C=C(C)[C@@H]1CC=C(C)CC1 [(S)-(−)-Limonene]
IC50 [1, 5]: 28.4 ± 2.84 µM
Ki [1, 6]: 21 ± 2.1 µM

CC(=O)CCC=C(C)C [6-Methyl-5-hepten-2-one]
IC50 [1]: 24.5 ± 1.43 µM
Ki [1]: 18.2 ± 1.06 µM

CCCCCC/C=C/C=O [trans-2-Nonenal]
IC50 [1]: 16.6 ± 1.78 µM
Ki [1]: 12.3 ± 1.31 µM
IC50 [2]: 25.9 ± 16.4 µM
Ki [2]: 23.7 ± 15 µM
IC50 [3]: > 40 µM
Behavioral response in words ([4]; 10 mg/mL): significantly attracted only female adults; also recorded: attractive
Behavioral response in words ([4]; 100 mg/mL): significantly repelled

C=C/C(C)=C\CC=C(C)C [(Z)-β-ocimene]
IC50 [1, 5]: 18 ± 2.89 µM
Ki [1, 6]: 13.3 ± 2.14 µM
IC50 ([2]; R24A mutant, read-out: IC50): 18.2 ± 1.97 µM
Ki ([2]; R24A mutant, read-out: Ki): 16.7 ± 2.73 µM
IC50 ([3]; Y75A mutant, read-out: IC50): 30.8 ± 7.87 µM
Ki ([3]; Y75A mutant, read-out: Ki): 21.9 ± 5.59 µM
Behavioral response in words ([4]; 100 mg/mL): significantly repelled; also recorded: repellent effects
Behavioral response in words ([4]; low concentrations): did not show any repelling or attracting activity

C=C(C)[C@@H]1CC=C(C)C(=O)C1 [(R)-(−)-Carvone]
IC50 [1]: 23 ± 0.91 µM
Ki [1]: 17 ± 0.67 µM

CC1=CCC(C(C)(C)O)CC1 (stereo not drawn) [(+)-α-Terpineol]
IC50 [1, 5]: 29.4 ± 1.6 µM
Ki [1, 6]: 21.8 ± 1.19 µM

CCCC/C=C\CCO [cis-3-Octen-1-ol]
IC50 [1]: 17 ± 1.08 µM
Ki [1]: 12.6 ± 0.8 µM
IC50 [2]: 18.9 ± 9.83 µM
Ki [2]: 17.4 ± 9.03 µM
IC50 [3]: 22.9 ± 6.68 µM
Ki [3]: 16.3 ± 4.75 µM
Behavioral response in words ([4]; 10 mg/mL): significantly repelled only males
Behavioral response in words ([4]; 100 mg/mL): significantly repelled; also recorded: repellent effects
Behavioral response in words ([4]; low concentrations): did not show any repelling or attracting activity

CC/C=C\CCO [Leaf alcohol]
IC50 [1, 5]: 27.9 ± 0.8 µM
Ki [1, 6]: 20.6 ± 0.59 µM

CCCCCCCCCCCCC [Tridecane]
IC50 [1]: > 40 µM

CCCCCCCCCCCCCCCCCCCCC [Heneicosane]
IC50 [1]: 22.5 ± 2.42 µM
Ki [1]: 16.7 ± 1.79 µM

CC/C=C\CCO [cis-3-Hexen-1-ol]
IC50 [1]: 23.4 ± 5.54 µM
Ki [1]: 17.3 ± 4.1 µM

C=C(C)[C@H]1CC=C(C)CC1 [(R)-(+)-Limonene]
IC50 [1, 5]: 25.2 ± 4.06 µM
Ki [1, 6]: 18.7 ± 3.01 µM

CC/C=C\CC1C(=O)CCC1CC(=O)OC (stereo not shown) [Methyl jasmonate]
IC50 [1]: 20.1 ± 1.92 µM
Ki [1]: 14.9 ± 1.42 µM
IC50 [2]: 8.89 ± 0.95 µM
Ki [2]: 8.16 ± 0.87 µM
Binding affinity of R24A compared with wild type, in words ([2]; R24A mutant): increased the binding affinity; also recorded: increased affinities
IC50 [3]: 29.7 ± 1.06 µM
Ki [3]: 21.1 ± 0.75 µM

COc1cc(C(C)=O)cc(OC)c1O [Acetosyringone]
IC50 [1]: 36.9 ± 6.77 µM
Ki [1]: 27.3 ± 5.01 µM

CC1=COC(=O)C2C(C)CCC12 (stereo not shown) [Nepetalactone]
Binding affinity in words [1]: weakly binds
IC50 [1, 5]: 33.8 ± 6.81 µM
Ki [1, 6]: 25 µM
Binding affinity in words ([1]; listed as nephelactone): weak binding affinities

C=CC(=C)CC/C=C(\C)CCC=C(C)C [(E)-β-Farnesene]
Binding affinity in words [1]: weakly binds
IC50 [1, 5]: 25.9 ± 1.16 µM
Ki [1, 6]: 19.2 ± 0.86 µM
Binding affinity in words ([1]; listed as EBF): weak binding affinities

CC1=CC[C@@H]2C[C@H]1C2(C)C [(1R)-(+)-α-Pinene]
IC50 [1]: 22.5 ± 2.42 µM
Ki [1]: 16.7 ± 1.79 µM

CC/C=C\CCOC(C)=O [cis-3-Hexenyl acetate]
IC50 [1]: 24.5 ± 0.49 µM
Ki [1]: 18.2 ± 0.36 µM

CC(=O)OC/C=C(\C)CCC=C(C)C [Geranyl acetate]
IC50 [1]: 27.3 ± 4.87 µM
Ki [1]: 20.2 ± 3.61 µM

CCCCCCCCCCCCCCCCCCC [Nonadecane]
IC50 [1]: 38.9 ± 7.44 µM
Ki [1]: 28.8 ± 5.51 µM
